Data from patent US10426772B2, “Use of ergot alkaloids as an anthelmintic agent” (priority 2016, dated 2019).

How the values were obtained:
[1] = target: Sm.5HTR (Schistosoma mansoni, UniProt G4V5G4); format: cell-based
Description: (§1) HEK293 cells (ATCC CRL-1573.3) were cultured in DMEM supplemented with 10% fetal bovine serum (FBS), penicillin (100 units/mL), streptomycin (100 μg/mL), and L-glutamine (290 μg/mL). Cells were transiently transfected (ViaFect, Promega) as per the manufacturer's protocol at a density of 2×10^6 cells per T-25 cell-culture flask. Cells were transfected with plasmids encoding GloSensor (Promega) and either Sm.5HTR, (Smp_126730, GenBank accession number KF444051.1) or Sm.5HTRL (KX150867), both GPCRs being codon optimized for mammalian expression, or Hs.5HT7a (GenBank accession number NM_000872.4, R&D Systems) subcloned into pCS2(−). Cell culture reagents were from Invitrogen. Epitope tagged constructs were used to verify expression, and untagged constructs used for all luminescence assays.
(§2) For assays performed on adherent cells, HEK-293 cells were transferred one day post transfection to 96 well, solid white plates (Corning, cat #3917) coated with 0.01% poly-L-lysine (Sigma Aldrich) at a density of 5×10^4 cells/well in DMEM supplemented with 1% dialyzed FBS (Gibco). After overnight culture (37° C./5% CO2), media was decanted and replaced with 100 μL/well HBSS supplemented with 0.1% BSA, 20 mM HEPES (pH 7.4) and GloSensor™ reagent. Plates were allowed to equilibrate at room temperature for two hours prior to performing luminescence assays (GloMax-Multi Detection System plate reader, Promega). Conditions for individual assays were described as per figure legends. The standard assay to detect changes in cAMP utilized the F22 sensor in media supplemented with IBMX (200 μM). Ligands were added at a concentration of 20× per well for experiments (i.e., 5 μl of drug solution added to 100 μL of cells). […] For the resazurin reduction assay for cellular viability, cells were incubated with resazurin (final concentration, 10 μM) and tested ligands with fluorescence measurements (560 nm excitation/590 nm emission) made at 1.5 hours intervals.
(§3) The protocol for screening is shown schematically in FIG. 5A. HEK293 cells transiently transfected with either the human 5HT7 receptor (Hs.5HT7R) or the schistosome receptor (Sm.5HTR) were exposed to test ligands in a 96-well plate format. […] Luminescence was then read at a fixed time point (t=60 minutes, FIG. 5A). Hits were assigned as compounds that evoked a ≥50% decrease in luminescence output at the fixed time sampling point (FIG. 5B).

[2] = test system: adult schistosomes; test: Adult schistosome mobility assay (Example 1); format: cell-based, Schistosoma mansoni
[3] = target: Sm.5HTRL (Schistosoma mansoni, UniProt A0A173FEI8); test: GloSensor cAMP assay, HEK293 cells transiently transfected with Sm.5HTRL; format: cell-based; settings: antagonists 10 μM; 5-HT EC80 dose 0.8 μM (FIG. 8)
Description: as §1, §2

[4] = target: T1, Hs.5HT7R (Homo sapiens, UniProt P34969); test: GloSensor cAMP assay, HEK293 cells transiently transfected with Hs.5HT7R; format: cell-based
T1 construct: host or cells: HEK293 (ATCC CRL-1573.3), transient, pCS2(−), co-transfected with GloSensor
Description: as §1, §2, §3

[5] = test system: S. mansoni schistosomules; test: Schistosomule contractility assay; format: cell-based; settings: Schistosoma mansoni, read-out: IC50, inhibition of 5-HT evoked contractions
Description: FIGS. 14A-14F. […] Effects of selected ligands on schistosomules. […] A contractile cycle is defined when a deviation of ≥20% of the average body length (dashed lines) occurs.
Biomphalaria glabrata (M-line) snails exposed to Schistosoma mansoni miracidia (Strain PR-1) were obtained from BEI Resources (Cat. number NR-21961) and cercaria were shed following exposure to light (1.5 hours). Cercaria were manually transformed into schistosomula by vortexing (3×45 seconds, each separated by 3 minutes on ice) and tails were removed by gradient centrifugation (24 mL Percoll, 4 mL 10×EMEM, 1.5 ml penicillin-streptomycin, 1 mL of 1M HEPES in 0.85% NaCl, 9.5 ml distilled water) at 500 g/15 minutes at 4° C. Supernatant containing tails was discarded, and schistosomules were resuspended in Basch media and incubated (37° C., 5% CO2) overnight before conducting mobility assays. For contractility experiments, somules were incubated in 5-HT free Basch media to resolve a basal contractility rate. […] Schistosomules were incubated in 24 well plates (about 200 schistosomules/0.5 mL media per well) for 30 minutes (37° C./5% CO2) prior to acquiring videos of schistosome movement (1 minute recordings/well) using a Nikon Coolpix 5700 camera affixed to a Nikon Eclipse TS100 microscope (10× objective). The WrmTrck plugin for ImageJ was used to quantify worm mobility (El-Shehabi et al., 2012). Briefly, the major axis of each schistosomule body length was extracted from the raw output of WrmTrck and an average length was determined for the duration of the recording. Contractions were quantified by determining the number of episodes during which the worm body length deviated from the average by over 20%. S. mansoni protocols were approved by the Iowa State University Institutional Biosafety Committee.

[6] = test system: S. mansoni; test: Curative efficacy against schistosome infection in mice; format: in vivo, Schistosoma mansoni; settings: one week
Description: Assays testing the curative efficacy of compounds against schistosome infection were performed on mice 6 weeks after exposure to cerceria. Drugs were dosed as follows. Ergotamine (95 mg/kg) was solubilized in 50 μL DMSO and diluted in 200 μL trappsol-saline and delivered by intraperitoneal injection twice a day for one week. Praziquantel (50 mg/kg) was similarly solubilized and injected intraperitoneally once a day for one week. The negative control cohort was given twice daily injections of DMSO (50 μL) added to 200 μL trappsol-saline solution. Mice were weighed and euthanized at 49 days post infection. Worms were harvested and counted as in the hepatic shift assay. Spleen and livers were weighed, and a segment of intestine was excised from the most distal region of the rectum to 10 cm above the cecum. The small and large intestines were separated by cutting immediately above and below the cecum. Each was cut lengthwise to expose the lumen and thoroughly washed in NaCl (1.2%) to remove excrement. Intestines were laid flat with the intestinal mucosa facing upwards and clamped between two glass plates to allow visual inspection of eggs using a stereo microscope.
Mice were injected with vehicle control (dmso), the current frontline anthelmintic (praziquantel) or ergotamine twice daily for one week at starting 42 days post infection.
All animals were sacrificed 49 days post infection, and worms were harvested by dissection of the mesenteric vasculature, portal vein and liver. […] Schistosomes lay large numbers of eggs within the host mesenteric system, and these progress through stages of development over approximately 5 days which can be scored looking at samples of the intestinal mucosa (Pellegrino et al., 1965). Therefore, it is possible to visually determine whether drug treatment has arrested parasite egg laying by observing a lack of developing eggs. Sections of both the large and small intestines were examined and eggs were manually counted and scored according to developmental stage (representative stages of embryo development shown in FIG. 20H-I, top).

[7] = test system: S. mansoni; test: Hepatic shift assay in infected mice; format: in vivo, Schistosoma mansoni; settings: intraperitoneal, ergotamine 95, praziquantel 100, methylergometrine 50, lisuride 10, dihydroergotoxine 60 mg/kg, euthanized three hours later
Description: Female Swiss Webster mice were exposed to 200 S. mansoni cerceria (NMRI strain) at between 4-6 weeks old. For hepatic shift assays, infections were allowed to mature to 7 weeks, at which point mice were given test compounds by intraperitoneal injection and euthanized […]. Compounds were solubilized in 50 μL DMSO, and diluted in 200 μL 5% w/v trappsol (Cyclodextrin Technologies Development, THPB-p-31 g)+saline (NaCl 0.9%) solution. Immediately after being euthanized, mice were dissected to remove the liver from the portal vein, and the number of worms recovered from the portal vein, mesenteries and liver was recorded for each mouse.
Several experiments using a murine model of schistosomiasis were carried out in order to test the anthelmintic efficacy of Sm.5HTR ligands in vivo. First, the acute effect of drugs were assessed using a “heptic-shift” assay; mature parasites normally reside within the mesenteric vasculature, and upon exposure to anthelmintics they dislodge and are swept to the liver^12,13 where they may be cleared from the host^14 (FIG. 20B-F).
Given that the current anthelmintic therapy, praziquantel, disrupts worms and results in a rapid shift from the mesenteric vasculature to the liver (Melhorn et al., 1981) (FIG. 20B-F), it was hypothesized that Sm.5HTR ligands that disrupt parasite movement would cause a similar hepatic shift. Compounds were delivered by intraperitoneal injection and mice were euthanized three hours later in order to quantify the number of worms found in the mesentaries, portal vein or liver.

Sequence of Sm.5HTR (G4V5G4 entry or part of it): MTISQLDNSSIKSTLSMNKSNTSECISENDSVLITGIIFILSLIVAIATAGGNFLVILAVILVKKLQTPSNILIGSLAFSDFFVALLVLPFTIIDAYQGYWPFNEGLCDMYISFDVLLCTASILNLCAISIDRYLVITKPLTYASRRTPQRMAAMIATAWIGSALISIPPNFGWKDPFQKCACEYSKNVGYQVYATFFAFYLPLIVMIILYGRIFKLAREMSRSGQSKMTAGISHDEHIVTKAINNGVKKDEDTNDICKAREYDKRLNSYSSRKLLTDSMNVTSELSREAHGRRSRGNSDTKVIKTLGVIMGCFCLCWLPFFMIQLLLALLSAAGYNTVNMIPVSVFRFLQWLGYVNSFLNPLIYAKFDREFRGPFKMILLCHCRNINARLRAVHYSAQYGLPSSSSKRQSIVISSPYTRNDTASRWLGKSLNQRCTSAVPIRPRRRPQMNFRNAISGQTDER
T1 sequence (P34969 1-445 isoform P34969-2): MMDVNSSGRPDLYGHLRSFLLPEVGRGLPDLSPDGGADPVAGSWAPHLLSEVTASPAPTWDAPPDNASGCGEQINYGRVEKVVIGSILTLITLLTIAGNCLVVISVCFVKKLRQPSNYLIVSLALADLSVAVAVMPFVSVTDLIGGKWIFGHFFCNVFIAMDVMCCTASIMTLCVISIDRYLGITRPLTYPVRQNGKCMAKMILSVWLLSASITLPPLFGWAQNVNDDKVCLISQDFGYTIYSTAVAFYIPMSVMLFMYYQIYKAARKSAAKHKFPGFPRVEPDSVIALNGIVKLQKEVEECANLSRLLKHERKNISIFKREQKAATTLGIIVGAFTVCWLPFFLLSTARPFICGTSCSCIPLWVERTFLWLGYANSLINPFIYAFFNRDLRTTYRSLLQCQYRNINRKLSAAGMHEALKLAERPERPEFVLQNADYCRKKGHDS
Sequence of Sm.5HTRL (A0A173FEI8 entry or part of it): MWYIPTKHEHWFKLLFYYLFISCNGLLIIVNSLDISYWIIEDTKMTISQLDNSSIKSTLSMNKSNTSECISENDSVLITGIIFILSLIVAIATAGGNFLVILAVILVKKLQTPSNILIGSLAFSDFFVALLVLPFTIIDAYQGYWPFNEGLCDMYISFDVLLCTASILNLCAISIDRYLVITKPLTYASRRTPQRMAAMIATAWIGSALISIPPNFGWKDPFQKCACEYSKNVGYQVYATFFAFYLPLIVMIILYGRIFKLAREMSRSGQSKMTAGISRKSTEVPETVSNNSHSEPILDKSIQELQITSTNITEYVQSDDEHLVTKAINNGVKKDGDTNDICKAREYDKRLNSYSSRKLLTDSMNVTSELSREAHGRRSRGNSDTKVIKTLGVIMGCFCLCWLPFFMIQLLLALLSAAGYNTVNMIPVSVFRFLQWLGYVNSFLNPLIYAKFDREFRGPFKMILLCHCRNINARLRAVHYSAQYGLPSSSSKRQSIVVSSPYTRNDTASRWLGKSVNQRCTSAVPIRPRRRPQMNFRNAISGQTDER

Compound	selectivity Sm.5HTR versus Hs.5HT7R (IC50 (Hs.5HT7R)/IC50 (Sm.5HTR)), in words ([1]; antagonism of 5-HT evoked cAMP, FIGS. 7, 12, 13)	potency (IC50) at Sm.5HTR, lower right quadrant of FIG. 13 ([1]; inhibition of cAMP generation)	IC50 ([1]; read-out: IC50, antagonism of 5-HT evoked cAMP generation at Sm.5HTR, 5-HT at EC80, F22 sensor, IBMX) [nM]	effect on 5-HT stimulated movement of adult worms ([2]; 5-HT 100 μM, male and female worms (FIG. 15G-I))	effect on basal movement of adult worms ([2]; no 5-HT, male and female worms (FIG. 15D-F))	inhibition of 5-HT evoked cAMP generation through Sm.5HTRL [3]	effect on Hs.5HT7 ([4]; concentrations up to 50 μM)	potency (IC50) at Hs.5HT7R, lower right quadrant of FIG. 13 ([4]; inhibition of cAMP generation)	IC50 [5] [nM]	protection from liver and spleen enlargement ([6]; infected mice, praziquantel 50 mg/kg i.p. once a day)	decrease in intestinal egg counts ([6]; mice, ergotamine 95 mg/kg twice a day, praziquantel 50 mg/kg once a day, i.p., versus vehicle control) [%]	modulation of Sm.5HTR receptor activity ([1]; doses that would convey an antiparasitic effect, FIGS. 10A and E)	% of worm burden found in the liver [7] [%]
COc1cc2c(cc1OC)[C@@H]1Cc3ccc(OC)c(OC)c3CN1CC2 [rotundine]	clear selectivity for Sm.5HTR	sub-μM potency	701 ± 207	inhibited the 5-HT evoked increases in worm movement	markedly inhibited worm movements at rest	inhibited 5-HT evoked cAMP generation through Sm.5HTRL	lacking any effect	supra-μM potency	≤ 1000	–	–	–	–
O=C(C1CCCCC1)N1CC(=O)N2CCc3ccccc3C2C1 (stereo not shown) [PZQ, praziquantel]	–	–	–	–	–	–	–	–	–	no significant protection from liver and spleen enlargement	99	did not reveal any modulation of receptor activity	68.8±14.1
